{"source": "patent US11986474B1", "about": "“Methods for treating heart failure by administering cardiac sarcomere activators” (Cytokinetics, Incorporated, priority 2023, dated 2024)", "key": {"[1]": {"assay": "GALACTIC-HF plasma concentration of omecamtiv mecarbil (PK-guided dosing)", "assay_type": "in vivo", "settings": "Week 8 visit (Week 6 concentration)", "protocol": "(§1) In a phase 3 clinical trial, Global Approach to Lowering Adverse Cardiac Outcomes through Improving Contractility in Heart Failure (GALACTIC-HF), all eligible participants were randomized 1:1 to oral administration of either placebo or omecamtiv mecarbil (pharmacokinetic-guided dosing: 25, 37.5 or 50 mg) twice daily. Pre-dose plasma concentrations of omecamtiv mecarbil were measured at weeks 2 and 6 with respective dose adjustments on weeks 4 and 8. The patient and investigator were blinded to the plasma concentrations and dispensed dose.\n(§2) Participants randomized to omecamtiv mecarbil were started at the lowest dose of 25 mg twice daily. […] At the end of Week 8, 28.6% of participants were on 25 mg BID (including participants whose plasma concentration results were not available in time for any dose titration visit or participant compliance with dosing was not affirmatively documented by the investigator), which was higher than the anticipated proportion (4.1%) based on population PK modeling. In participants who completed the dosing algorithm as intended and were titrated to 37.5 or 50 mg BID, mean omecamtiv mecarbil plasma concentrations were higher than those in the 25 mg BID dose group. Participants titrated to doses of 37.5 or 50 mg BID tended to have reduced risk of the primary composite endpoint and cardiovascular death compared to those at a dose of 25 mg BID, as shown in Table 2 below.\nA summary of participants by dose group at Week 4 (dose selection determined by the Week 2 concentrations of omecamtiv mecarbil), at Week 8 (dose selection determined by the Week 6 concentrations of omecamtiv mecarbil), and the final dose at Week 12, is provided in Table 3. Overall, the proportions of participants receiving each of the omecamtiv mecarbil doses remained generally consistent over time. At the Week 8 visit, 3.0% of participants had their doses adjusted from 50 to 25 mg BID and 1.1% from 37.5 to 25 mg BID. […]"}, "[2]": {"system": "patients with chronic heart failure with reduced ejection fraction", "settings": "cited from earlier work"}, "[3]": {"system": "patients with heart failure with reduced ejection fraction", "assay": "GALACTIC-HF phase 3 clinical trial, outcomes by titrated dose group", "assay_type": "in vivo, human", "settings": "for Hazard Ratio, CV Death / Hazard Ratio, Primary Endpoint: OM vs PBO", "protocol": "In a phase 3 clinical trial, Global Approach to Lowering Adverse Cardiac Outcomes through Improving Contractility in Heart Failure (GALACTIC-HF), the following dosing regimen was used to assess treatment effect with omecamtiv mecarbil in patients with heart failure with reduced ejection fraction. At the initiation of treatment, a first dose level of 25 mg twice daily was orally administered to subjects randomized to receive omecamtiv mecarbil. At study visit week 2, a predose blood sample was collected. At week 4, subjects with week 2 omecamtiv mecarbil predose plasma concentration of less than 200 ng/mL would increase their dose level to 50 mg twice daily; subjects with week 2 plasma concentrations greater than or about 200 ng/mL but less than 300 ng/mL would increase their dose level to 37.5 mg twice daily; subjects with week 2 plasma concentrations greater than or about 300 ng/mL but less than 1000 ng/mL would maintain a dose level of 25 mg twice daily; and subjects with plasma concentration greater than or about 1000 ng/mL would start administration of placebo twice daily. At weeks 6, a predose blood sample was collected to confirm plasma concentration achieved and assess if changes to the dose should be made. […] The dosing regimen used in the GALACTIC-HF study was associated with reduced risk of heart failure outcomes and a very low incidence of excessive concentrations of omecamtiv mecarbil (e.g., plasma concentration over 1000 ng/mL). Treatment results were described in, for example, Cardiac Myosin Activation with Omecamtiv Mecarbil in Systolic Heart Failure (Teerlink et al., N. Engl. J. Med., 2021, 384; 2) and NCT02929329.\nas §1, §2"}, "[4]": {"system": "cardiomyocyte calcium transient", "settings": "cited from earlier work"}, "[5]": {"system": "patients with heart failure with reduced ejection fraction", "settings": "randomized, placebo-controlled phase 3 clinical trial; cited from earlier work"}, "[6]": {"settings": "patients with chronic HFrEF, treatment for 20 weeks"}, "[7]": {"settings": "25 mg BID dose group, Cox Model Adjusting for Significant Baseline Covariates"}, "[8]": {"settings": "25 mg BID dose group, Planned Primary Analysis Cox Model"}, "[9]": {"settings": "37.5 mg BID dose group, Cox Model Adjusting for Significant Baseline Covariates"}, "[10]": {"settings": "37.5 mg BID dose group, Planned Primary Analysis Cox Model"}, "[11]": {"settings": "50 mg BID dose group, Cox Model Adjusting for Significant Baseline Covariates"}, "[12]": {"settings": "50 mg BID dose group, Planned Primary Analysis Cox Model"}}, "data": [{"smiles": "COC(=O)N1CCN(Cc2cccc(NC(=O)Nc3ccc(C)nc3)c2F)CC1", "note": "[omecamtiv mecarbil, methyl 4-(2-fluoro-3-(3-(6-methylpyridin-3-yl)ureido)benzyl)piperazine-1-carboxylate]", "values": [{"measurement": "participants with down titration due to plasma concentration exceeding 750 ng/mL, number (%)", "setting": "[1]", "value": "9 (0.22%)"}, {"measurement": "participants with down titration, plasma concentration in the 750 to <1,000 ng/mL range", "setting": "[1]", "value": 8, "unit": "participants"}, {"measurement": "concentration at 6 weeks", "setting": "[1]; human, plasma, oral, read-out: plasma concentration of the 1 down-titrated participant above 1,000 ng/mL", "value": 1000, "unit": "ng/mL"}, {"measurement": "cardiac performance", "setting": "[2]; early clinical studies, short-term intravenous administration", "value": "improved"}, {"measurement": "plasma concentration above which the risk of cardiac ischemic events is increased", "setting": "[2]; likely due to shortening of diastole and decreased coronary perfusion", "value": "exceeding 1200 ng/mL"}, {"measurement": "left ventricular systolic and diastolic volumes", "setting": "[2]; [6]", "value": "decreased"}, {"measurement": "left ventricular systolic function", "setting": "[2]; [6]", "value": "increased"}, {"measurement": "natriuretic peptide concentrations and heart rate", "setting": "[2]; [6]", "value": "reduced"}, {"measurement": "Hazard Ratio, CV Death", "setting": "[3]; [7]", "value": 1.11}, {"measurement": "Hazard Ratio, Primary Endpoint", "setting": "[3]; [7]", "value": 0.93}, {"measurement": "Hazard Ratio, CV Death", "setting": "[3]; [8]", "value": 1.18}, {"measurement": "Hazard Ratio, Primary Endpoint", "setting": "[3]; [8]", "value": 1.00}, {"measurement": "Primary Endpoint, participants n/N", "setting": "[3]; 37.5 mg BID dose group, OM arm", "value": "OM (225/602) vs PBO (1,477/3,897)"}, {"measurement": "Hazard Ratio, CV Death", "setting": "[3]; [9]", "value": 0.94}, {"measurement": "Hazard Ratio, Primary Endpoint", "setting": "[3]; [9]", "value": 0.90}, {"measurement": "Hazard Ratio, CV Death", "setting": "[3]; [10]", "value": 1.00}, {"measurement": "Hazard Ratio, Primary Endpoint", "setting": "[3]; [10]", "value": 0.93}, {"measurement": "Hazard Ratio, CV Death", "setting": "[3]; [11]", "value": 0.98}, {"measurement": "Hazard Ratio, Primary Endpoint", "setting": "[3]; [11]", "value": 0.89}, {"measurement": "Hazard Ratio, CV Death", "setting": "[3]; [12]", "value": 0.91}, {"measurement": "Hazard Ratio, Primary Endpoint", "setting": "[3]; [12]", "value": 0.87}, {"measurement": "effect on intracellular calcium transients", "setting": "[4]", "value": "no effect"}, {"measurement": "relative risk of a heart-failure event or death from cardiovascular causes vs placebo", "setting": "[5]", "value": "lower relative risk"}, {"measurement": "risk of myocardial ischemic events, ventricular arrhythmias, or death from cardiovascular causes or any cause", "setting": "[5]", "value": "without evidence of an increase"}]}]}
